The values that follow come from US8153116B2, “Use of conditional plasmodium strains lacking an essential gene in malaria vaccination” (University of Connecticut, priority 2006, dated 2012).

This assay concerns wild type, pfpmtΔ+PfPMT and pfpmtΔ parasites. Briefly: TUNEL assay of drug-treated parasites. As to conditions: 100 nM, 24 h. The format is cell-based, Plasmodium falciparum. The method, then: The terminal deoxynucleotidyl transferase (TdT) dUTP nick end labeling (TUNEL) kit (Roche) was used to detect apoptotic cells following the manufacturer's instructions, with some modifications. Briefly, asynchronous cultures were grown to 10% parasitemia and 1 ml of the culture aliquots were washed twice with PBS and the cell count adjusted to 1×10^6 cells/ml. Fixation was achieved by resuspending the cells in 2% paraformaldehyde solution in PBS and incubated at room temperature for 1 h. The fixed cells were washed twice with PBS, resuspended in 100 μl of 0.1% Triton X-100 in 0.1% sodium citrate solution, and incubated for 2 min on ice. Cells were then washed twice in PBS and kept on ice until labeling. A positive control sample was prepared by incubating fixed and permeabilized cells with 3000 U/ml of DNase I for 15 min at room temperature followed by two washes with PBS. To label the cells, 50 μl of the TUNEL reaction mixture was added to the cell pellet and mixed gently. A negative control sample was included by treating fixed, permeabilized cells with the labeling solution in, the absence of the terminal TdT enzyme. The reaction mixtures were incubated in the dark at 37° C. for 1 h and then washed twice in PBS and resuspended in 250 μl PBS. Cells were analyzed by fluorescence microscopy at 525 nm wavelength with the FITC filter. […]

For the compound `CCN(CC)CCCC(C)Nc1ccnc2cc(Cl)ccc12` (stereo not shown) [chloroquine], the “TUNEL staining of drug-treated parasites” value is listed as “positively stained with TUNEL”.
